Here are results for 15 compounds from PubChem BioAssay (NCI).

Molecules are shown by their SMILES.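 Five compound concentrations were applied to cells in 96-well plates for 48 hours; endpoints were derived by simple linear interpolation of the resulting dose-response curve. GI50 is the concentration that inhibits growth by half. The concentration for full growth arrest is given as TGI.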

Test systems include HOP-92 NSCLC; NCI-H226 lung; LOX IMVI melanoma; MDA-N; T-47D breast; MDA-MB-231 breast; SK-MEL-5 melanoma; OVCAR-4 ovarian; SN12C renal; BT-549 breast.
Common to all, as to assay: NCI-60 cell line screen, 48 h

`C=C1CCCCCCCCCCC1S(=O)c1ccccc1` (centres undefined): the TGI in the assay with HOP-92 NSCLC is over 100 µM; with NCI-H226 lung, over 100 µM; in the assay on LOX IMVI melanoma, 91.3 µM; in the assay with MDA-N, over 100 µM; in the assay with T-47D breast it was over 100 µM; in the assay on MDA-MB-231 breast it was 75.3 µM. For the same compound, the TGI is over 100 µM in the assay on SK-MEL-5 melanoma, over 100 µM with OVCAR-4 ovarian and 55.4 µM in the assay with SN12C renal.
Consider `N#CC(c1ccccc1)c1cccc2ccccc12` (centres undefined), for which the TGI is over 100 µM in the assay with NCI-H226 lung; 50.8 µM in the assay with LOX IMVI melanoma; over 100 µM in the assay on T-47D breast; over 100 µM in the assay on MDA-MB-231 breast; 34.3 µM in the assay with SK-MEL-5 melanoma; over 100 µM in the assay on OVCAR-4 ovarian. In addition, in the assay on SN12C renal, the TGI is over 100 µM.
In the case of `O=C1NC(N2CCOCC2)=N/C1=C\c1ccccc1O`, the TGI in the assay on HOP-92 NSCLC, in the assay on NCI-H226 lung, with LOX IMVI melanoma, with MDA-N, in the assay on T-47D breast and in the assay on MDA-MB-231 breast was over 100 µM in each case. The TGI in the assay on SK-MEL-5 melanoma, in the assay with OVCAR-4 ovarian and in the assay with SN12C renal was over 100 µM each time.
Consider `COc1ccc(-c2cn3ccnc3c(-c3ccc4ncn(C5CCCCC5)c4c3)n2)cc1`, for which the GI50 in the assay on HOP-92 NSCLC was 1.18 µM; with NCI-H226 lung, 2.97 µM; in the assay on LOX IMVI melanoma it was 0.74 µM; with T-47D breast, 0.761 µM; in the assay on MDA-MB-231 breast, 2.83 µM; in the assay with SK-MEL-5 melanoma, 0.698 µM. Also, the GI50 in the assay on BT-549 breast was 0.41 µM; in the assay on SN12C renal, 2.11 µM. Moreover, the TGI was over 100 µM in the assay with HOP-92 NSCLC; over 100 µM in the assay with NCI-H226 lung; over 100 µM in the assay on LOX IMVI melanoma; 4.5 µM in the assay with T-47D breast; over 100 µM in the assay on MDA-MB-231 breast; 3.2 µM with SK-MEL-5 melanoma. For the same compound, the TGI in the assay on BT-549 breast was 3.91 µM; in the assay on SN12C renal, over 100 µM.
Consider `COc1cc(C2c3cc4c(cc3OC(N3CCOCC3)C2C)OCO4)cc(OC)c1O` (centres undefined), for which the TGI in the assay with HOP-92 NSCLC was over 65.3 µM; in the assay with NCI-H226 lung it was over 66.3 µM; with LOX IMVI melanoma, over 100 µM; with T-47D breast, over 100 µM; with MDA-MB-231 breast, over 84.2 µM; in the assay on SK-MEL-5 melanoma, 17.5 µM. In addition, the TGI in the assay with BT-549 breast was 60.6 µM; with OVCAR-4 ovarian it was over 100 µM; in the assay with SN12C renal it was 54.3 µM.
As for `CN(C)Cc1cc(C(=O)/C=C/c2ccc(/C=C/C(=O)c3cc(CN(C)C)c(O)c(CN(C)C)c3)cc2)cc(CN(C)C)c1O`, the TGI was 56.4 µM in the assay on HOP-92 NSCLC; 26.5 µM with LOX IMVI melanoma; over 100 µM with T-47D breast; 41.1 µM in the assay on MDA-MB-231 breast; over 100 µM in the assay with SK-MEL-5 melanoma; 60.2 µM with BT-549 breast. Moreover, the values for the TGI in the assay with OVCAR-4 ovarian and in the assay with SN12C renal were over 100 µM and 76 µM, respectively.
For `C=C(Br)CN(C#N)CC(=C)Br`, the TGI with NCI-H226 lung, in the assay on LOX IMVI melanoma, in the assay with MDA-N, in the assay with T-47D breast, in the assay on MDA-MB-231 breast and in the assay with SK-MEL-5 melanoma was over 100 µM each time. Besides, the TGI in the assay on OVCAR-4 ovarian and in the assay with SN12C renal was over 100 µM throughout.
For the compound `O=C1CC(c2cccc(Cl)c2)n2cccc21` (centres undefined), the TGI in the assay on HOP-92 NSCLC, in the assay on NCI-H226 lung, in the assay with LOX IMVI melanoma, with T-47D breast, in the assay on MDA-MB-231 breast and in the assay on OVCAR-4 ovarian was over 100 µM each time. This compound yielded a TGI with SN12C renal of over 100 µM.
For the compound `COC(=O)c1c(O)ccc2c1c1c(n2C)C(=O)c2ccccc2C1=O`, the TGI in the assay on HOP-92 NSCLC was 21 µM; with NCI-H226 lung it was over 100 µM; in the assay with LOX IMVI melanoma it was over 100 µM; with T-47D breast it was 13.1 µM; in the assay with MDA-MB-231 breast it was 25.8 µM; in the assay on SK-MEL-5 melanoma it was over 100 µM. The TGI was 45.8 µM in the assay with BT-549 breast, 80.6 µM in the assay with OVCAR-4 ovarian and over 100 µM in the assay with SN12C renal.
For the compound `Cc1nc2c(Br)cc(Br)cc2c(=O)n1-c1ccccc1N`, the TGI in the assay on NCI-H226 lung is 99.6 µM; in the assay with LOX IMVI melanoma it was over 100 µM; with MDA-N it was over 100 µM; in the assay with MDA-MB-231 breast it was over 100 µM; in the assay on SK-MEL-5 melanoma, 39 µM; with BT-549 breast, 87.6 µM. In addition, the TGI with OVCAR-4 ovarian and in the assay on SN12C renal was over 100 µM in each case.
Consider `CCN(CC)C(=O)CCCCCCCCC1CO1` (centres undefined), for which the TGI in the assay on HOP-92 NSCLC, with NCI-H226 lung, in the assay on LOX IMVI melanoma, with MDA-N, in the assay with MDA-MB-231 breast and with SK-MEL-5 melanoma was over 100 µM each time. In addition, the TGI in the assay with OVCAR-4 ovarian and in the assay on SN12C renal was over 100 µM in each case.
Take `Cc1nnc2c3c(-c4ccccc4)c(-c4ccccc4)oc3nc(N(C)C)n12`: the TGI with HOP-92 NSCLC, with NCI-H226 lung, in the assay with LOX IMVI melanoma, with T-47D breast, with MDA-MB-231 breast and in the assay on SK-MEL-5 melanoma was over 100 µM each time. This compound gave a TGI with OVCAR-4 ovarian of over 100 µM.
Take `CC1(C)CCOC(=O)C(Cl)CC1Cl` (centres undefined): the TGI in the assay on NCI-H226 lung, with LOX IMVI melanoma, in the assay with MDA-N, with T-47D breast, in the assay with MDA-MB-231 breast and with SK-MEL-5 melanoma was over 100 µM in each case. Moreover, the TGI with OVCAR-4 ovarian and in the assay with SN12C renal was over 100 µM in each case.
In the case of `O=S1(=O)c2ccccc2N2CCCc3cc(Cl)cc1c32`, the TGI in the assay on NCI-H226 lung, with LOX IMVI melanoma, with MDA-N, in the assay with MDA-MB-231 breast, in the assay with SK-MEL-5 melanoma and in the assay with BT-549 breast was over 100 µM in each case. Also, the TGI in the assay with OVCAR-4 ovarian and in the assay with SN12C renal was over 100 µM throughout.
For `CC(NC(=O)c1ccc(OP(=O)(OCC2=CC(=O)c3ccccc3C2=O)N(C)CCCCCl)cc1)c1ccc(OCC2CCCCC2)c(C(N)=O)c1` (centres undefined), the TGI in the assay with HOP-92 NSCLC was determined as 19.6 µM; in the assay with NCI-H226 lung, 24.2 µM; with LOX IMVI melanoma, 17.6 µM; in the assay on MDA-N, 13 µM; with T-47D breast it was 10.5 µM; with MDA-MB-231 breast it was 21.3 µM. In addition, the results for the TGI in the assay on SK-MEL-5 melanoma and with SN12C renal were 2.02 µM and 26.2 µM, respectively.
